≈ marks a conversion by molar mass, not a printed value.
Columns and labels:
S. aureus = details: Shaarei-Zedek Jerusalem Medical Center Database; cited from earlier work
[1] = Stability of entrapped Doxycycline during hydration in FBS solution at 37° C.; type: physicochemical; details: after hydration for 21 days, matrix: released+reservoir
Protocol: Doxycycline is known to degenerate under hydrating conditions. The matrix composition of the present invention can protect Doxycycline from this degradation. The stability of the entrapped Doxycycline during the hydration of the matrix composition (in FBS solution at 37° C.) was tested. At each time point two parameters were tested: 1) Doxycycline molecules released from the medical device of the invention and 2) Doxycycline molecules reservoir in the medical device of the invention. The latter was extracted from the formulation using methylene chloride. The sum of the two Doxycycline quantities represents the overall quantity of Doxycycline in the product at each time point. Free Doxycycline, incubated under the same conditions, was used as control. Results are plotted in FIG. 3.

[2] = test system: Staphylococcus aureus (ATCC 25923); test: Antibacterial activity of Doxycycline released from coated bone particles; type: cell-based; details: ATCC25923, released at different time points over 30 days following hydration
Protocol: The antibacterial activity against Staphylococcus aureus (ATCC 25923), of Doxycycline that was released from bone particles coated with the matrix composition of the invention was followed for a period of 30 days following its hydration (FIG. 4). The MIC (Minimal Inhibitory Concentration) for Doxycycline that was released from the matrix composition at different time points was calculated to be ˜1 μg/ml, and MIC 50 (the concentration that inhibits 50% growth) was ˜0.1 μg/ml, values that were similar to the control free Doxycycline.

Molecule	isolated S. aureus sub species in the clinic resistant to the antibiotic (S. aureus)	overall doxycycline remaining intact, of the initial dose [1] [%]	MIC50 ([2]; read-out: MIC 50 (the concentration that inhibits 50% growth)) [µg/mL]	MIC ([2]; read-out: MIC (Minimal Inhibitory Concentration)) [µg/mL]
gentamicin	30-40%			
penicillin	more than 50%			
C[C@H]1c2cccc(O)c2C(=O)C2=C(O)[C@]3(O)C(=O)C(C(N)=O)=C(O)[C@@H](N(C)C)[C@@H]3[C@@H](O)[C@@H]21 [free Doxycycline, Doxycycline]		20	~0.1 (≈ 0.225 µM)	~1 (≈ 2.25 µM)

— US9173976B2, “Compositions and methods for the treatment of bone voids and open fractures” (POLYPID LTD., priority 2012, dated 2015)
